The test system of one test is Acinetobacter baumannii ATCC17961. Kind of test: 90% Growth Inhibitory Concentration (IC90) determination, antimicrobial susceptibility testing. The note with it: Acinetobacter baumannii, ATCC17961, 16 h, Acinetobacter baumannii ATCC17961; Iso-Sensitest broth; growth by optical density at 600 nm over 16h; concentration inhibiting 90% of the growth; read-out: ATCC 17961 IC90. In kind it is cell-based. Put shortly:
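Broth microdilution in Iso-Sensitest medium, compounds twofold diluted (e.g. 50–0.097 μM final), inoculum ~5×10^(5) CFU/ml, 35±2° C. OD600 was read every 20 min over 16 h. IC90 was derived from growth inhibition during logarithmic growth.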
With `Cn1c(-c2cn(-c3ccc(N)cn3)nc2C(F)(F)F)cnc1C(=O)Nc1ccc(C(=O)N2CCC3(CCNC3)CC2)c(Cl)c1` [Example Z8, 5-[1-(5-amino-2-pyridyl)-3-(trifluoromethyl)pyrazol-4-yl]-N-[3-chloro-4-(2,8-diazaspiro[4.5]decane-8-carbonyl)phenyl]-1-methyl-imidazole-2-carboxamide], the concentration for an effect of 90% (IC90) came to 370 nM. Turning to `COCc1c[nH]nc1-n1cc(-c2cnc(C(=O)Nc3ccc(C(=O)N4CCN(C(=O)C5CCN(C)CC5)CC4)c(Cl)c3)n2C)c(C(F)(F)F)n1` [Example Z9, N-[3-chloro-4-[4-(1-methylpiperidine-4-carbonyl)piperazine-1-carbonyl]phenyl]-5-[1-[4-(methoxymethyl)-1H-pyrazol-3-yl]-3-(trifluoromethyl)pyrazol-4-yl]-1-methyl-imidazole-2-carboxamide], the IC90 is 1080 nM.

On to `Cn1c(-c2cn(-c3ccc(N)nc3)nc2C(F)(F)F)cnc1C(=O)Nc1ccc(C(=O)N2CCN(C(=O)C3CCNCC3)CC2)c(Cl)c1` [Example Z10, 5-[1-(6-amino-3-pyridyl)-3-(trifluoromethyl)pyrazol-4-yl]-N-[3-chloro-4-(4-isonipecotoylpiperazine-1-carbonyl)phenyl]-1-methyl-imidazole-2-carboxamide], for which the IC90 stood at 330 nM. On to `Cn1c(-c2cn(-c3ccc(N)cn3)nc2C(F)(F)F)cnc1C(=O)Nc1ccc(C(=O)N[C@H]2C[C@@H](N)C2)c(Cl)c1` [Example Z11, N-[4-[cis-(3-aminocyclobutyl)carbamoyl]-3-chloro-phenyl]-5-[1-(5-amino-2-pyridyl)-3-(trifluoromethyl)pyrazol-4-yl]-1-methyl-imidazole-2-carboxamide], for which the IC90 amounted to 950 nM. Regarding `Cn1c(-c2cn(-c3ccc(N)cn3)nc2C(F)(F)F)cnc1C(=O)Nc1ccc(C(=O)N2CC3CNCC3C2)c(Cl)c1` (centres unmarked) [Example Z12, N-[4-(2,3,3a,4,6,6a-hexahydro-1H-pyrrolo[3,4-c]pyrrole-5-carbonyl)-3-chloro-phenyl]-5-[1-(5-amino-2-pyridyl)-3-(trifluoromethyl)pyrazol-4-yl]-1-methyl-imidazole-2-carboxamide], the 90% effect concentration (IC90) worked out at 930 nM.

Turning to `CN(C(=O)c1ccc(NC(=O)c2ncc(-c3cn(-c4ccc(N)cn4)nc3C(F)(F)F)n2C)cc1Cl)C1CCNCC1` [Example Z13, 5-[1-(5-amino-2-pyridyl)-3-(trifluoromethyl)pyrazol-4-yl]-N-[3-chloro-4-[methyl(4-piperidyl)carbamoyl]phenyl]-1-methyl-imidazole-2-carboxamide], the concentration for an effect of 90% (IC90) was 420 nM.

Turning to `Cn1c(-c2cn(-c3ccc(N)cn3)nc2C(F)(F)F)cnc1C(=O)Nc1ccc(C(=O)N2CCC(CN)CC2)c(Cl)c1` [Example Z14, N-[4-[4-(aminomethyl)piperidine-1-carbonyl]-3-chloro-phenyl]-5-[1-(5-amino-2-pyridyl)-3-(trifluoromethyl)pyrazol-4-yl]-1-methyl-imidazole-2-carboxamide], the IC90 came to 850 nM. On to `Cn1c(-c2cn(-c3ccc(N)cn3)nc2C(F)(F)F)cnc1C(=O)Nc1ccc(C(=O)NC2CC(CN)(CCl)C2)c(Cl)c1` (centres unmarked) [Example Z15, N-[4-[[3-(aminomethyl)-3-(chloromethyl)cyclobutyl]carbamoyl]-3-chloro-phenyl]-5-[1-(5-amino-2-pyridyl)-3-(trifluoromethyl)pyrazol-4-yl]-1-methyl-imidazole-2-carboxamide], for which the IC90 came to 910 nM. `Cn1c(-c2cn(-c3ccc(N)cn3)nc2C(F)(F)F)cnc1C(=O)Nc1ccc(C(=O)N[C@H]2CC[C@H](N)C2)c(Cl)c1` [Example Z16]: the IC90 is 860 nM. Consider `Cn1c(-c2cn(-c3ccc(N)cn3)nc2C(F)(F)F)cnc1C(=O)Nc1ccc(C(=O)NCC2CC2N)c(Cl)c1` (centres unmarked) [Example Z18, N-[4-[(2-aminocyclopropyl)methylcarbamoyl]-3-chloro-phenyl]-5-[1-(5-amino-2-pyridyl)-3-(trifluoromethyl)pyrazol-4-yl]-1-methyl-imidazole-2-carboxamide], for which the IC90 worked out at 1590 nM. On the same count and under the same terms, under `Cn1c(-c2cn(-c3ccc(N)cn3)nc2C(F)(F)F)cnc1C(=O)Nc1ccc(C(=O)N[C@H]2C[C@H](N)C2)c(Cl)c1` [Example Z19, N-[4-[trans-(3-aminocyclobutyl)carbamoyl]-3-chloro-phenyl]-5-[1-(5-amino-2-pyridyl)-3-(trifluoromethyl)pyrazol-4-yl]-1-methyl-imidazole-2-carboxamide] stands 950 nM; under `Cn1c(-c2cn(-c3ccc(N)cn3)nc2C(F)(F)F)cnc1C(=O)Nc1ccc(C(=O)N2CCC(N)CC2)c(Cl)c1` [Example Z20, N-[4-(4-aminopiperidine-1-carbonyl)-3-chloro-phenyl]-5-[1-(5-amino-2-pyridyl)-3-(trifluoromethyl)pyrazol-4-yl]-1-methyl-imidazole-2-carboxamide], 330 nM. In the case of `Cn1c(-c2cn(-c3ccc(N)cn3)nc2C(F)(F)F)cnc1C(=O)Nc1ccc(C(=O)NCCOCCN)c(Cl)c1` [Example Z21, N-[4-[2-(2-aminoethoxy)ethylcarbamoyl]-3-chloro-phenyl]-5-[1-(5-amino-2-pyridyl)-3-(trifluoromethyl)pyrazol-4-yl]-1-methyl-imidazole-2-carboxamide], the IC90 was 670 nM.

With `Cn1c(-c2cn(-c3ccc(N)cn3)nc2C(F)(F)F)cnc1C(=O)Nc1ccc(C(=O)N2CCC3(CC2)CCN(C(=O)[C@@H]2C[C@@H](O)CN2)C3)c(Cl)c1` [Example Z22, 5-[1-(5-amino-2-pyridyl)-3-(trifluoromethyl)pyrazol-4-yl]-N-[3-chloro-4-[2-[(2S,4R)-4-hydroxyprolyl]-2,8-diazaspiro[4.5]decane-8-carbonyl]phenyl]-1-methyl-imidazole-2-carboxamide], the IC90 came out at 510 nM. On to `Cn1c(-c2cn(-c3ccc(N)cn3)nc2C(F)(F)F)cnc1C(=O)Nc1ccc(C(=O)N[C@@H]2CC[C@@H](NC(=O)[C@@H]3C[C@@H](O)CN3)C2)c(Cl)c1` [Example Z23, 5-[1-(5-amino-2-pyridyl)-3-(trifluoromethyl)pyrazol-4-yl]-N-[3-chloro-4-[[(1R,3R)-3-[[(2S,4R)-4-hydroxyprolyl]amino]cyclopentyl]carbamoyl]phenyl]-1-methyl-imidazole-2-carboxamide], for which the IC90 is 360 nM.

`Cn1c(-c2cn(-c3ccc(N)cn3)nc2C(F)(F)F)cnc1C(=O)Nc1ccc(C(=O)N2CCC(NC(=O)[C@@H]3C[C@@H](O)CN3)CC2)c(Cl)c1` [Example Z24, 5-[1-(5-amino-2-pyridyl)-3-(trifluoromethyl)pyrazol-4-yl]-N-[3-chloro-4-[4-[[(2S,4R)-4-hydroxyprolyl]amino]piperidine-1-carbonyl]phenyl]-1-methyl-imidazole-2-carboxamide]: the IC90 is 460 nM. Turning to `Cn1c(-c2cn(-c3ccc(N)cn3)nc2C(F)(F)F)cnc1C(=O)Nc1ccc(C(=O)N2CC3(CC(NC(=O)[C@@H]4C[C@@H](O)CN4)C3)C2)c(Cl)c1` [Example Z25, 5-[1-(5-amino-2-pyridyl)-3-(trifluoromethyl)pyrazol-4-yl]-N-[3-chloro-4-[6-[[(2S,4R)-4-hydroxyprolyl]amino]-2-azaspiro[3.3]heptane-2-carbonyl]phenyl]-1-methyl-imidazole-2-carboxamide], the IC90 amounted to 540 nM. As for `Cn1c(-c2cn(-c3ccc(N)cn3)nc2C(F)(F)F)cnc1C(=O)Nc1ccc(C(=O)NCCCNC(=O)[C@@H]2C[C@@H](O)CN2)c(Cl)c1` [Example Z26, 5-[1-(5-amino-2-pyridyl)-3-(trifluoromethyl)pyrazol-4-yl]-N-[3-chloro-4-[3-[[(2S,4R)-4-hydroxyprolyl]amino]propylcarbamoyl]phenyl]-1-methyl-imidazole-2-carboxamide], the IC90 was determined as 690 nM. On to `Cn1c(-c2cn(-c3ccc(N)cn3)nc2C(F)(F)F)cnc1C(=O)Nc1ccc(C(=O)NC2CN(C(=O)[C@@H]3C[C@@H](O)CN3)CC2CO)c(Cl)c1` (stereo partly drawn) [Example Z27, 5-[1-(5-amino-2-pyridyl)-3-(trifluoromethyl)pyrazol-4-yl]-N-[3-chloro-4-[[1-[(2S,4R)-4-hydroxyprolyl]-4-methylol-pyrrolidin-3-yl]carbamoyl]phenyl]-1-methyl-imidazole-2-carboxamide], for which the IC90 amounted to 1180 nM. On the same count and under the same terms, the value for `Cn1c(-c2cn(-c3ccc(N)cn3)nc2C(F)(F)F)cnc1C(=O)Nc1ccc(C(=O)NCCCCCN)c(Cl)c1` [Example Z28, N-[4-(5-aminopentylcarbamoyl)-3-chloro-phenyl]-5-[1-(5-amino-2-pyridyl)-3-(trifluoromethyl)pyrazol-4-yl]-1-methyl-imidazole-2-carboxamide] was 360 nM; that for `Cn1c(-c2cn(-c3cnc(N)cn3)nc2C(F)(F)F)cnc1C(=O)Nc1ccc(C(=O)N2CCN(C(=O)C3CCNCC3)CC2)c(Cl)c1` [Example Z29, 5-[1-(5-aminopyrazin-2-yl)-3-(trifluoromethyl)pyrazol-4-yl]-N-[3-chloro-4-(4-isonipecotoylpiperazine-1-carbonyl)phenyl]-1-methyl-imidazole-2-carboxamide] was 600 nM; that for `Cn1c(-c2cn(-c3ccc(Cl)nc3)nc2C(F)(F)F)cnc1C(=O)Nc1ccc(C(=O)N2CCN(C(=O)[C@@H]3C[C@@H](O)CN3)CC2)c(Cl)c1` [Example Z30, N-[3-chloro-4-[4-[(2S,4R)-4-hydroxyprolyl]piperazine-1-carbonyl]phenyl]-5-[1-(6-chloro-3-pyridyl)-3-(trifluoromethyl)pyrazol-4-yl]-1-methyl-imidazole-2-carboxamide] was 780 nM.

Staying with this test, now noted: Acinetobacter baumannii, ATCC17961, 16 h, read-out: ATCC 17961 IC90.
For the compound `Cn1c(-c2cn(-c3ccc(N)cn3)nc2C(F)(F)F)cnc1C(=O)Nc1ccc(C(=O)NCCN)c(Cl)c1` [Example Z17, N-[4-(2-aminoethylcarbamoyl)-3-chloro-phenyl]-5-[1-(5-amino-2-pyridyl)-3-(trifluoromethyl)pyrazol-4-yl]-1-methyl-imidazole-2-carboxamide], the IC90 amounted to 990 nM.
